Reference: publication PMC5325191, “Biotransformation of a potent anabolic steroid, mibolerone, with Cunninghamella blakesleeana, C. echinulata, and Macrophomina phaseolina, and biological activity evaluation of its metabolites” (PLoS ONE, 2017)
“Also recorded” adds a separate entry of the source. Like-named read-outs stand apart in the source and are kept apart here.

Tests used:
[1] = system: progesterone receptor (PR); design: method as in PMID 18515094, PMID 24552459, PMID 11953818; conditions: mibolerone eliminates PR expression; 5α-dehydrotestosterone reduces PR to basal levels; ref [1]–[4]; cited from earlier work
[2] = system: Leishmania major promastigotes; assay: leishmanicidal activity assay (72 h, microscopic counting); assay type: cell-based; conditions: for IC50: Leishmania major, read-out: Leishmanicidal activity IC50 ± SD
Procedure: Leishmania major (DESTO, Pakistan) was cultured in a mixture of NNN-biphasic medium, and normal physiological saline solution. L. major promastigotes were grown on RPMI 1640 medium, supplemented with fetal bovine serum (FBS) (10% heat inactivated). Parasites were centrifuged (at log phase) for 10 min at 2,000 rpm and washed thrice with saline. The final density of fresh culture (10^6 cells/mL) was acquired through dilution of parasites. Sample solution of 1 mg of test compounds was prepared in a mixture 50 μL of DMSO and 950 μL of RPMI media. Fully dissolved compounds were transferred to 96-well plate. The first row of 96-well plate received 180 μL of the medium, while the remaining wells received 100 μL medium. Test compounds (20 μL each) were added into the medium containing wells, followed by serial dilution. The parasite culture (100 μL) was then transferred to each well. Negative controls comprised of only the growth medium, while standard leishmanicidal drugs (amphotericin or pentamidine) were used as positive controls. The plate was then incubated for 72 h at 21–22°C. The inhibitory effect of test compounds on the culture was analyzed microscopically on an improved Neubauer counting chamber. IC50 values were calculated through Ezfit 5.03 Perella Scientific software (USA).

[3] = system: HeLa cancer cell line (human cervical carcinoma); assay: MTT cytotoxicity assay, HeLa; assay type: cell-based; conditions: 24 hours treatment, read-out: HeLa Cell line IC50 ± SD
Procedure: (§1) MTT (3-(4,5-dimethyl thiazol-2yl)-2,5-diphenyl tetrazolium bromide) assay was employed to study the cytotoxic activity against HeLa (human cervical carcinoma, provided by Prof. Dr. Anwar Ali Siddiqui from Aga Khan University, Karachi, Pakistan), and mouse fibroblast 3T3 (ATCC® CRL-1658, purchased from American Type Culture Collection, ATCC, Virginia, USA) cell lines. The cells (1 × 10^5 /well) were plated in 0.2 mL of DMEM high glucose medium/well in 96-well plates. The cells were treated for 24 hours with test compounds in the range of 25, 50, 75, 100, and 200 μM concentrations, respectively. For the MTT assay, the medium from the wells was removed carefully after 24 hours treatment. Each well was washed with 1X PBS for 2–3 times, and 200 μL of MTT (5 mg/mL) was added in to media containing wells (1:10). The plates were incubated for 4 hours at 37°C, in a 5% CO2 incubator. After incubation, MTT was removed and 0.1 mL of DMSO was added to each well and mixed by keeping on a stirrer. The presence of viable cells was visualized by the development of purple color due to formation of the formazan crystals. The plates were observed under spectrophotometer (Spectramax) and absorbance was taken at 545 and 570 nm for cancer and normal cell lines, respectively.

[4] = system: 3T3 cell line (mouse fibroblast); assay: MTT cytotoxicity assay, 3T3; assay type: cell-based; conditions: for IC50: read-out: 3T3 Cell line IC50 ± SD
Procedure: as §1

[5] = biological target: T1, β-glucuronidase enzyme (E.C. 3.2.1.31, bovine liver) (Bos taurus, UniProt A3KMY8); assay: β-glucuronidase inhibition assay (p-nitrophenyl-β-D-glucuronide, absorbance 405 nm); assay type: biochemical; conditions: for β-glucuronidase inhibitory activity IC50 ± SD: in vitro, bovine liver enzyme, 37°C, triplicate
T1 sequence (A3KMY8 24-652): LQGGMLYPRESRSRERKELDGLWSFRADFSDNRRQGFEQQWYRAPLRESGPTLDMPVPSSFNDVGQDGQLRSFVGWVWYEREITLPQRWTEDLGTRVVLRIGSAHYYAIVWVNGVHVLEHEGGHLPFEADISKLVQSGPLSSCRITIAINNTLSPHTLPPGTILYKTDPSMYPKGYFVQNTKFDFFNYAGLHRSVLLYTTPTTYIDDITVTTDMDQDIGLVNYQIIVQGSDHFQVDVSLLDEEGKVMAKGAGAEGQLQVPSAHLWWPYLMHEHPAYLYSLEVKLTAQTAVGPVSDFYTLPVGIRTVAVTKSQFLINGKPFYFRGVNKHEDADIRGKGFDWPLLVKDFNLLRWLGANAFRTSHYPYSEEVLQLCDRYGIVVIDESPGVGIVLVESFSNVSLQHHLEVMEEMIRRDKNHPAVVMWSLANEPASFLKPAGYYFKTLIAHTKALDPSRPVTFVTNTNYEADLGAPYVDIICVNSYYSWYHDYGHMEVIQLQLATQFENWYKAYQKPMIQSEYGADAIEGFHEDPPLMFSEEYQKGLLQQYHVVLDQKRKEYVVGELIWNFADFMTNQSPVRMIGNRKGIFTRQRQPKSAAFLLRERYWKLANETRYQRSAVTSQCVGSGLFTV
Procedure: The inhibition of β-glucuronidase enzyme (E.C. 3.2.1.31, bovine liver) by test compounds was determined on a spectrophotometer by measuring the absorbance of p-nitrophenol at 405 nm, produced from the substrate. The reaction mixture comprised 185 μL of 0.1 M acetate buffer, and 5 μL of test compound solution, and 10 μL of (1U) enzyme solution in a 96-well plate. The mixture was incubated at 37°C for 30 min. The test compounds were solubilized in DMSO (100%), and 5 μL volume was added in each well (2% of total volume). […] The plates were read on a multiplate reader (SpectraMax plus 384) at 405 nm and 37°C, after addition of 50 μL of 0.4 mM p-nitrophenyl-β-D-glucuronide. All assays were performed in triplicate. IC50 values were calculated through EZ-Fit software (Perrella Scientific Inc., Amherst, MA, USA).

[6] = Mus musculus, NIH3T3, 24 hours treatment
[7] = L. major promastigotes, 72 h at 21–22°C

Structure (SMILES): C[C@]12CCC(=O)C[C@@H]1CC[C@@H]1[C@@H]2CC[C@]2(C)[C@@H](O)CC[C@@H]12 [5α-dehydrotestosterone]
- dose that eliminates / reduces to basal levels progesterone receptor expression [1]: 10 to 100 nM

Structure (SMILES): C[C@@H]1[C@H](O)[C@@H](C)/C=C/C=C/C=C/C=C/C=C/C=C/C=C/[C@H](O[C@@H]2O[C@H](C)[C@@H](O)[C@H](N)[C@@H]2O)C[C@@H]2O[C@](O)(C[C@@H](O)C[C@@H](O)[C@H](O)CC[C@@H](O)C[C@@H](O)CC(=O)O[C@H]1C)C[C@H](O)[C@H]2C(=O)O [Amphotericin B, reference compound]
- IC50 ([2]; 72 h): 0.29 ± 0.05 µM

Structure (SMILES): N.N.[Cl][Pt][Cl] [Cisplatin, reference compound]
- IC50 [3]: 38.5 ± 1.8 µM
- IC50 ([4]; 24 hours treatment): 39.7 ± 2.7 µM

Structure (SMILES): C[C@@H]1CC2=CC(=O)CC[C@@H]2[C@H]2CC[C@@]3(C)[C@@H](CC[C@]3(C)O)[C@@H]21 [Compound 1, 17β-Hydroxy-7α,17α-dimethylestr-4-en-3-one, reference compound]
- IC50 [5]: 43 ± 1.24 µM
- IC50 ([2]; 72 h): 29.6 ± 0.88 µM
- IC50 ([3]; Homo sapiens, HeLa, 24 h): 35.7 ± 4.46 µM
- IC50 [4, 6]: 46.3 ± 11.7 µM
- dose that eliminates / reduces to basal levels progesterone receptor expression [1]: 1 nM

Structure (SMILES): CC1CC2=CC(=O)CCC2(O)C2CCC3(C)C(CCC3(C)O)C12 (stereo not drawn) [Compound 2, 10β,17β-Dihydroxy-7α,17α-dimethylestr-4-en-3-one]
- β-glucuronidase inhibitory activity IC50 ± SD [5]: Inactive
- Leishmanicidal activity IC50 ± SD [2, 7]: Inactive
- IC50 ([3]; Homo sapiens, HeLa, 24 h): 46.5 ± 5.4 µM
- IC50 [4, 6]: 43.3 ± 7.7 µM

Structure (SMILES): C[C@H]1[C@@H]2[C@H](CC[C@@]3(C)[C@H]2CC[C@]3(C)O)[C@H]2CCC(=O)C=C2[C@@H]1O [Compound 3, 6β,17β-Dihydroxy-7α,17α-dimethylestr-4-en-3-one]
- β-glucuronidase inhibitory activity IC50 ± SD [5]: Inactive
- IC50 ([2]; 72 h): 79.09 ± 0.06 µM
- IC50 ([3]; Homo sapiens, HeLa, 24 h): 108 ± 4 µM
- IC50 [4, 6]: 65.6 ± 2.5 µM

Structure (SMILES): CC1C(O)C2=CC(=O)CCC2(O)C2CCC3(C)C(CCC3(C)O)C12 (stereo not drawn) [Compound 4, 6β,10β,17β-Trihydroxy-7α,17α-dimethylestr-4-en-3-one]
- β-glucuronidase inhibitory activity IC50 ± SD [5]: Inactive
- Leishmanicidal activity IC50 ± SD [2, 7]: Inactive
- IC50 ([3]; Homo sapiens, HeLa, 24 h): 152 ± 2.1 µM
- IC50 [4, 6]: 89.4 ± 2.7 µM

Structure (SMILES): CC1CC2=CC(=O)CCC2C2C(O)CC3(C)C(CCC3(C)O)C12 (stereo not drawn) [Compound 8, 11β,17β-Dihydroxy-7α,17α-dimethylestr-4-en-3-one]
- β-glucuronidase inhibitory activity IC50 ± SD [5]: Inactive
- IC50 ([2]; 72 h): 70.09 ± 0.05 µM
- IC50 [3]: 34.1 ± 5.3 µM
- IC50 ([3]; Homo sapiens, HeLa, 24 h): 34.2 ± 5.3 µM
- 3T3 Cell line IC50 ± SD ([4]; 24 hours treatment): no cytotoxicity; also recorded: Inactive

Structure (SMILES): N=C(N)c1ccc(OCCCCCOc2ccc(C(=N)N)cc2)cc1 [Pentamidine, reference compound]
- IC50 [2, 7]: 5.09 ± 0.09 µM
